System: patients with inadequately managed, severe chronic low back pain with or without a neuropathic pain component
Assay: Hospital Anxiety and Depression Scale (HADS) anxiety score; open-label phase IIIb trial, tapentadol prolonged release 50-250 mg bid for up to 12 weeks
Format: in vivo, human patients
Procedure: As used herein, the “anxiety score” is a value determining the degree of the […]. The scale of anxiety scores covers the range from 0 to 21, wherein the degree of the anxiety is high in case of high values and low in case of low values. In a group of tested subjects, typically the mean or mediate values of anxiety scores are determined and referred to. The mean value is the sum of all anxiety scores divided by the number of subjects. The mediate value is the middle anxiety score in the set of determined scores. Preferably, the “anxiety score” is defined as in the experimental section.
A subgroup suffering from neuropathic pain due to lumbar radiculopathy was also investigated.
This was a multicenter, multinational, open-label, effectiveness phase IIIb trial to evaluate effectiveness and safety of tapentadol prolonged release treatment in patients with inadequately managed, severe chronic low back pain with or without a neuropathic pain component. Patients taking WHO Step II analgesics discontinued those analgesics before starting study medication; patients taking Step I analgesics and/or centrally acting co-analgesics continued on the same dose. […] All patients received tapentadol prolonged release (50-250 mg bid) for up to 12 weeks (5-week titration period and a 7-week maintenance period). Tapentadol immediate release (IR) 50 mg (twice a day, hours apart) was permitted (combined total daily dose of tapentadol prolonged release and tapentadol IR, 500 mg/day). The primary efficacy endpoint was the change from Baseline to Week 6 (when tapentadol prolonged release doses were stable) in average pain intensity on the 11-point NRS-3 using the last observation carried forward (LOCF) for imputing missing scores. The painDETECT questionnaire was used to evaluate the likelihood of a neuropathic pain component of low back pain; patients were classified as painDETECT “negative,” “unclear,” or “positive.” The population of patients classified as painDETECT negative was limited to approximately 30% of the total population.
In the painDETECT positive trial population the “diagnosis of lumbar radiculopathy” was evaluated which was defined per study protocol according following criteria: • typical dermatomal pain (radiating beyond the knee towards the foot, pain evoked by stretching within distribution of the ischiadic/femoral nerve) • signs of root dysfunction: • such as sensory impairment, motor symptoms from compression of lumbar nerve root (L4, L5, S1). • and/or absent or diminished quadriceps femoris or triceps surae reflexes. • and/or quantitative sensory testing (QST) deficit and pain distribution present in the same dermatomal area.
All subjects completed Short Form-36 (SF-36) and EuroQol-5 Dimension (EQ-5D) questionnaires and the Hospital Anxiety and Depression Scale (HADS). The Patient Global Impression of Change (PGIC) and Clinical global impression of change (CGIC) were also used as secondary endpoints. For both tests, patients completed the statement, “since I began trial treatment, I would rate my overall condition as,” using 7 possible responses (“very much worse” to “very much improved”). Adverse events were recorded throughout the trial.
In the following • (i) N is the number of subjects of the specified diagnosis group, • (ii) n is the number of subjects with data available, • (iii) “Mean” is the mean score of the subjects, i.e. the sum of all scores is divided by the number of subjects, • (iv) SD is the standard deviation, • (v) “Median” is the median score of the subjects, i.e. the middle score in the set of scores, • (vi) “Range” is the range of scores of the subjects, i.e. the range defined by the lowest and the highest score of the set of scores. First, the depression scores are presented. The total number of subjects in the clinical study: N=175

[1] = Visit 8, presumed neuropathic pain component N=41
[2] = Visit 8, presumed or defined neuropathic
[3] = Visit 8, presumed or defined neuropathic pain component N=126
[4] = Visit 8, subjects with nociceptive pain N=49
[5] = Visit 9, defined neuropathic pain N=85
[6] = Visit 9, positive diagnosis of lumbar radiculopathy-neuropathic pain subset N=44
[7] = Visit 9, presumed neuropathic pain component N=41
[8] = Visit 9, presumed or defined neuropathic pain component N=126
[9] = Visit 9, subjects with nociceptive pain N=49
[10] = Visit 10, defined neuropathic pain N=85
[11] = Visit 10, positive diagnosis of lumbar radiculopathy-neuropathic pain subset N=44
[12] = Visit 10, presumed neuropathic pain component N=41
[13] = Visit 10, presumed or defined neuropathic pain component N=126
[14] = Visit 10, subjects with nociceptive pain N=49
[15] = Visit 11, defined neuropathic pain N=85
[16] = Visit 11, positive diagnosis of lumbar radiculopathy-neuropathic pain subset N=44
[17] = Visit 11, presumed neuropathic pain component N=41
[18] = Visit 11, presumed or defined neuropathic pain component N=126
[19] = Visit 11, subjects with nociceptive pain N=49
[20] = Visit 12, defined neuropathic pain N=85
[21] = Visit 12, positive diagnosis of lumbar radiculopathy-neuropathic pain subset N=44
[22] = Visit 12, presumed neuropathic pain component N=41
[23] = Visit 12, presumed or defined neuropathic
[24] = Visit 12, presumed or defined neuropathic pain component N=126
[25] = Visit 12, subjects with nociceptive pain N=49

## CC[C@@H](c1cccc(O)c1)[C@@H](C)CN(C)C [tapentadol, (−)-(1R,2R)-3-(3-dimethylamino-1-ethyl-2-methyl-propyl)-phenol]
Visit 8, positive diagnosis of lumbar radiculopathy-neuropathic pain subset N=44
  Anxiety score Median: 5.0
[1]
  Anxiety score Mean (SD): 4.9 (4.04)
  Anxiety score Median: 4.0
[2]
  Anxiety score change from baseline Mean (SD): −2.4 (3.57)
  Anxiety score change from baseline Median: −2.0
[3]
  Anxiety score Mean (SD): 5.7 (3.80)
  Anxiety score Median: 5.0
[4]
  Anxiety score Mean (SD): 5.4 (4.40)
  Anxiety score Median: 4.0
Visit 8, total
  Anxiety score change from baseline Mean (SD): −1.9 (3.72)
  Anxiety score change from baseline Median: −2.0
Visit 8, total subjects N=175
  Anxiety score Mean (SD): 5.6 (3.95)
  Anxiety score Median: 5.0
[5]
  Anxiety score Mean (SD): 6.1 (3.99)
  Anxiety score Median: 5.0
[6]
  Anxiety score Mean (SD): 6.2 (4.01)
  Anxiety score Median: 5.0
[7]
  Anxiety score Mean (SD): 6.1 (5.10)
  Anxiety score Median: 6.0
[8]
  Anxiety score Mean (SD): 6.1 (4.32)
  Anxiety score Median: 5.0
[9]
  Anxiety score Mean (SD): 4.6 (3.34)
  Anxiety score Median: 4.0
Visit 9, total subjects N=175
  Anxiety score Mean (SD): 5.7 (4.10)
  Anxiety score Median: 4.0
[10]
  Anxiety score Mean (SD): 6.1 (3.98)
  Anxiety score Median: 6.0
[11]
  Anxiety score Mean (SD): 6.1 (3.85)
  Anxiety score Median: 6.0
[12]
  Anxiety score Mean (SD): 5.5 (5.46)
  Anxiety score Median: 4.0
[13]
  Anxiety score Mean (SD): 5.9 (4.46)
  Anxiety score Median: 5.0
[14]
  Anxiety score Mean (SD): 4.7 (3.21)
  Anxiety score Median: 4.0
Visit 10, total subjects N=175
  Anxiety score Mean (SD): 5.6 (4.16)
  Anxiety score Median: 5.0
[15]
  Anxiety score Mean (SD): 5.9 (3.84)
  Anxiety score Median: 5.5
[16]
  Anxiety score Mean (SD): 6.3 (4.25)
  Anxiety score Median: 6.5
[17]
  Anxiety score Mean (SD): 5.1 (4.25)
  Anxiety score Median: 4.0
[18]
  Anxiety score Mean (SD): 5.6 (3.96)
  Anxiety score Median: 5.0
[19]
  Anxiety score Mean (SD): 4.8 (3.77)
  Anxiety score Median: 4.0
Visit 11, total subjects N=175
  Anxiety score Mean (SD): 5.4 (3.91)
  Anxiety score Median: 5.0
Visit 12
  Anxiety score change from baseline Mean (SD): −3.1 (3.16)
  Anxiety score change from baseline Median: −3.0
Visit 12, defined neuropathic
  Anxiety score change from baseline Mean (SD): −2.3 (4.14)
  Anxiety score change from baseline Median: −2.0
[20]
  Anxiety score Mean (SD): 5.7 (3.80)
  Anxiety score Median: 5.0
Visit 12, lumbar radiculopathy
  Anxiety score change from baseline Mean (SD): −2.2 (4.11)
  Anxiety score change from baseline Median: −2.0
Visit 12, nociceptive
  Anxiety score change from baseline Mean (SD): −0.8 (2.82)
  Anxiety score change from baseline Median: −1.0
[21]
  Anxiety score Mean (SD): 5.7 (3.59)
  Anxiety score Median: 6.0
[22]
  Anxiety score Mean (SD): 4.8 (3.67)
  Anxiety score Median: 4.0
[23]
  Anxiety score change from baseline Mean (SD): −2.5 (3.85)
  Anxiety score change from baseline Median: −2.0
[24]
  Anxiety score Mean (SD): 5.4 (3.76)
  Anxiety score Median: 5.0
[25]
  Anxiety score Mean (SD): 4.5 (3.65)
  Anxiety score Median: 3.0
Visit 12, total
  Anxiety score change from baseline Mean (SD): −2.1 (3.67)
  Anxiety score change from baseline Median: −2.0
Visit 12, total subjects N=175
  Anxiety score Mean (SD): 5.2 (3.73)
  Anxiety score Median: 4.0
Conclusion from the clinical data
  efficacy against anxiety: significant efficacy

Source: patent US9980927B2, “Use of tapentadol for inhibiting and/or treating depression and anxiety” (Gruenenthal GmbH, priority 2011, dated 2018)
